Test results as given in patent publication US10555987B2, “GHRH agonists for the treatment of ischemic disorders” (UNIVERSITY OF MIAMI, priority 2012, dated 2020).
Non-standard residues stand in square brackets, D forms with d. Residues, ends and D or L forms follow the SMILES beside them. *: point of attachment. Desaminotyrosyl = O=C(CCc1ccc(O)cc1)*; NMeY = CN[C@@H](Cc1ccc(O)cc1)C(=O)O; Agmatine = N=C(N)NCCCCN*; Nle = CCCC[C@H](N)C(=O)O; Orn = NCCC[C@H](N)C(=O)O; Abu = CC[C@H](N)C(=O)O

Assays:
[1] = system: superfused rat pituitary cells; experiment: GH release in superfused rat pituitary cell system (Table 4); type: cell-based; conditions: 1 nM; for GH Response (ng/ml), column 1: replicate 1; for GH Response (ng/ml), column 2: replicate 2; for GH Response (ng/ml), column 3: replicate 3
Description: Growth hormone releasing activity. Growth hormone releasing was assayed by using a superfused rat pituitary cell system as described in S. Vigh and A. V. Schally, Peptides 5, Suppl: 241-347, 1984. The new synthetic peptide analog of hGHRH P20356 and JI-38 (as control) were administered for 3 minutes (1 mL perfusate) at 1 nM concentration as shown below. Fractions of 1 ml are collected and the GH content in each was determined by ELISA.
Pituitary cells from 2 male rats were used for each channel of the superfusion system. The cells were exposed to 3-min pulses of the new GHRH agonists or to JI-38 as standard every 30 min. Outflowing samples of each channel (1 ml) were collected every 3 min, and GH levels were determined by ELISA.

GHRH receptor = biological target: T1, GHRH receptor (Homo sapiens, UniProt Q02643); experiment: GHRH receptor binding, competition with 125I-labeled [His1,Nle27]hGHRH(1-32)NH2, human pituitary membrane homogenates (Table 6); parameters: Normal human pituitaries were purchased from the National Hormone and Peptide Program; tissue National Hormone and Peptide Program (A.F. Parlow, Harbor-UCLA Medical Center, Torrance, Calif.); host or cells: normal human pituitary, membrane fraction
T1 sequence (Q02643 23-423): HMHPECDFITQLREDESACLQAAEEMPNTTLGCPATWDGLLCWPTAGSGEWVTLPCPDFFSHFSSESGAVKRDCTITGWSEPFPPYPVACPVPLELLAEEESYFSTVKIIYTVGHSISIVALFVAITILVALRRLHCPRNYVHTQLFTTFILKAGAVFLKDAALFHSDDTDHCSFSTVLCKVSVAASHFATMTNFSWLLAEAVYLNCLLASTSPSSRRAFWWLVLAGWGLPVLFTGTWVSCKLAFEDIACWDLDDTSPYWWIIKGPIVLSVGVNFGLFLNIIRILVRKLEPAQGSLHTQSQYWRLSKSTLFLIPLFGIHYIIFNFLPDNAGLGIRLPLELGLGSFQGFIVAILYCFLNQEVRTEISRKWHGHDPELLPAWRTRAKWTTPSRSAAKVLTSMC
Source text: Normal human pituitaries were purchased from the National Hormone and Peptide Program (A.F. Parlow, Los Angeles, County Harbor-UCLA Medical Center, Torrance, Calif.).

[2] = fraction 1 (P-20356)/21 (JI-38)
[3] = fraction 2 (P-20356)/22 (JI-38)
[4] = fraction 3 (P-20356)/23 (JI-38)
[5] = fraction 4 (P-20356)/24 (JI-38)
[6] = fraction 5 (P-20356)/25 (JI-38)

| SMILES | GH Response (ng/ml), Average [1, 2] [ng/mL] | GH Response (ng/ml), column 1 [1, 2] [ng/mL] | GH Response (ng/ml), column 2 [1, 2] [ng/mL] | GH Response (ng/ml), Average [1, 3] [ng/mL] | GH Response (ng/ml), column 1 [1, 3] [ng/mL] | GH Response (ng/ml), column 2 [1, 3] [ng/mL] | GH Response (ng/ml), Average [1, 4] [ng/mL] | GH Response (ng/ml), column 1 [1, 4] [ng/mL] | GH Response (ng/ml), column 2 [1, 4] [ng/mL] | GH Response (ng/ml), Average [1, 5] [ng/mL] | GH Response (ng/ml), column 1 [1, 5] [ng/mL] | GH Response (ng/ml), column 2 [1, 5] [ng/mL] | GH Response (ng/ml), Average [1, 6] [ng/mL] | GH Response (ng/ml), column 1 [1, 6] [ng/mL] | GH Response (ng/ml), column 2 [1, 6] [ng/mL] | also measured |
| --- | --- | --- | --- | --- | --- | --- | --- | --- | --- | --- | --- | --- | --- | --- | --- | --- |
| CCCC[C@H](NC(=O)[C@@H](NC(=O)[C@H](CC(=O)O)NC(=O)[C@H](CCC(N)=O)NC(=O)[C@H](CC(C)C)NC(=O)[C@H](CC(C)C)NC(=O)[C@H](CCCN)NC(=O)[C@H](CCCNC(=N)N)NC(=O)[C@H](C)NC(=O)[C@H](CO)NC(=O)[C@H](CC(C)C)NC(=O)[C@H](CCC(N)=O)NC(=O)[C@H](CC)NC(=O)[C@H](CC(C)C)NC(=O)[C@@H](NC(=O)[C@H](CCCN)NC(=O)[C@H](CCCNC(=N)N)NC(=O)[C@H](Cc1ccc(O)cc1)NC(=O)[C@H](CO)NC(=O)[C@H](CCC(N)=O)NC(=O)[C@@H](NC(=O)[C@H](Cc1ccccc1)NC(=O)[C@@H](NC(=O)[C@H](C)NC(=O)[C@H](CC(=O)O)NC(=O)[C@H](C)NC(=O)CCc1ccc(O)cc1)[C@@H](C)CC)[C@@H](C)O)C(C)C)[C@@H](C)CC)C(=O)N[C@@H](CC(=O)O)C(=O)NCCCCNC(=N)N [JI-38, [Dat^1, Gln^8, Orn^12,21, Abu^15, Nle^27, Asp^28, Agm^29]hGHRH(1-29)NH2, reference compound] (Desaminotyrosyl-ADAIFTQSYR[Orn]VL[Abu]QLSAR[Orn]LLQDI[Nle]D-Agmatine) | 49.27 | 42.46 | 56.07 | 131.71 | 143.58 | 119.83 | 194.68 | 222.13 | 167.23 | 137.45 | 142.96 | 131.93 | 96.70 | 96.34 | 97.05 | IC50 (GHRH receptor; 125I-[His1,Nle27]hGHRH(1-32)NH2, human pituitary membranes, Table 6): 1.95 nM; Relative affinity (Binding potency) vs GHRH (GHRH receptor; GHRH(1-29) = 1, Table 6): 3.03; Relative affinity (Binding potency) vs JI-38 (GHRH receptor; JI-38 = 1, Table 6): 1 |
| CCCC[C@H](NC(=O)[C@@H](NC(=O)[C@H](CC(=O)O)NC(=O)[C@H](CCC(N)=O)NC(=O)[C@H](CC(C)C)NC(=O)[C@H](CC(C)C)NC(=O)[C@H](CCCN)NC(=O)[C@H](CCCNC(=N)N)NC(=O)[C@H](C)NC(=O)[C@H](CO)NC(=O)[C@H](CC(C)C)NC(=O)[C@H](CCC(N)=O)NC(=O)[C@H](CC)NC(=O)[C@H](CC(C)C)NC(=O)[C@@H](NC(=O)[C@H](CCCN)NC(=O)[C@H](CCCNC(=N)N)NC(=O)[C@H](Cc1ccc(O)cc1)NC(=O)[C@H](CO)NC(=O)[C@H](CCC(N)=O)NC(=O)[C@@H](NC(=O)[C@H](Cc1ccccc1)NC(=O)[C@@H](NC(=O)[C@H](C)NC(=O)[C@H](CC(=O)O)NC(=O)[C@H](C)NC(=O)[C@H](Cc1ccc(O)cc1)NC)[C@@H](C)CC)[C@@H](C)O)C(C)C)[C@@H](C)CC)C(=O)N[C@@H](CC(=O)O)C(=O)NCCCCNC(=N)N [Peptide P-20356, [N—Me-Tyr^1, Gln^8, Orn^12, Abu^15, Orn^21, Nle^27, Asp^28, Agm^29]hGHRH(1-29) NH2] (H-[NMeY]ADAIFTQSYR[Orn]VL[Abu]QLSAR[Orn]LLQDI[Nle]D-Agmatine) | 52.45 | 49.98 | 54.99 | 337.48 | 310.58 | 325.76 | 556.46 | 491.01 | 602.1 | 334.99 | 399.95 | 270.02 | 197.91 | 200.64 | 195.18 | GH-releasing potency in vitro, times more potent than JI-38 ([1]; superfused rat pituitary cells): about 3; GH Response (ng/ml), column 3 [1, 2]: 52.37 ng/mL; GH Response (ng/ml), column 3 [1, 3]: 376.11 ng/mL; GH Response (ng/ml), column 3 [1, 4]: 576.26 ng/mL |
